Reference: patent US20110294772A1, “USE OF CYCLOSQUARAMIDE COMPOUNDS AS ANTI-TUMOUR AGENTS” (priority 2008, published 2011)

How the values were obtained:
[1] = test system: panel of 210 kinases representative of the human kinome; assay: in vitro kinase panel; assay type: biochemical; conditions: 25 kinases selected for IC50, in vitro assays
Protocol: Specifically, against a panel of 210 kinases representative of the human kinome, the compounds tested inhibited by […] the activity of 25 of them in in Vitro assays (Table 1).
The IC50 was determined for the most sensitive kinases to compound 10, obtaining values for said parameter, largely in the micromolar range. For this purpose, the 25 kinases inhibited more than 80% by the compound in in vitro assays were selected.

Hut = assay: cell viability assay; assay type: cell-based, human; conditions: Hut T-cell lymphoma, 72 h, with respect to untreated control cells
Jeko-1 = assay: cell viability assay; assay type: cell-based, human
Protocol: The IC50 in cell viability assays were determined for some of the macrocycles prepared in Jeko-1 (B-cell lymphoma (MCL) type cells. With a total incubation period of 48 h.

U251 = assay: cell viability assay; assay type: cell-based, human; conditions: U251 glioblastoma, 72 h, with respect to untreated control cells
IGR-OVI (Ovarian) = assay: NCI60 panel IC50; assay type: cell-based; conditions: Homo sapiens
Protocol: (§1) On the other hand, the values of IC50 were determined in the panel of NCl60 cell lines for compound 10.
(§2) A total of 2 independent experiments were carried out with assays in triplicate for the compound and cell line. All those assays where an IC50 value was not reached in the highest concentration of 1E-05 M are represented by “>1E-05”. In these cases, the standard deviation cannot be calculated and for that reason it is calculated as “-”.

MOLT-4 (Leukaemia) = assay: NCI60 panel IC50; assay type: cell-based; conditions: Homo sapiens
Protocol: as §1, §2

Sw-620 (Colon) = assay: NCI60 panel IC50; assay type: cell-based; conditions: Homo sapiens
Protocol: as §1, §2

MCF-7 (Breast) = assay: NCI60 panel IC50; assay type: cell-based; conditions: Homo sapiens, MCF7
Protocol: as §1, §2

A-498 (Renal) = assay: NCI60 panel IC50; assay type: cell-based; conditions: Homo sapiens, A498
Protocol: as §1, §2

EKVX (Lung) = assay: NCI60 panel IC50; assay type: cell-based; conditions: Homo sapiens
Protocol: as §1, §2

HOP-62 (Lung) = assay: NCI60 panel IC50; assay type: cell-based; conditions: Homo sapiens
Protocol: as §1, §2

ACHN (Renal) = assay: NCI60 panel IC50; assay type: cell-based; conditions: Homo sapiens
Protocol: as §1, §2

DMS-114 (Lung) = assay: NCI60 panel IC50; assay type: cell-based; conditions: Homo sapiens
Protocol: as §1, §2

U-251 (CNS) = assay: NCI60 panel IC50; assay type: cell-based; conditions: Homo sapiens
Protocol: as §1, §2

SK-MEL-2 (Melanoma) = assay: NCI60 panel IC50; assay type: cell-based; conditions: Homo sapiens
Protocol: as §1, §2

COLO-205 (Colon) = assay: NCI60 panel IC50; assay type: cell-based; conditions: Homo sapiens
Protocol: as §1, §2

Caki-1 (Renal) = assay: NCI60 panel IC50; assay type: cell-based; conditions: Homo sapiens
Protocol: as §1, §2

TK-10 (Renal) = assay: NCI60 panel IC50; assay type: cell-based; conditions: Homo sapiens
Protocol: as §1, §2

A549 (Lung) = assay: NCI60 panel IC50; assay type: cell-based; conditions: Homo sapiens
Protocol: as §1, §2

SW-480 (Colon) = assay: NCI60 panel IC50; assay type: cell-based; conditions: Homo sapiens, SW480
Protocol: as §1, §2

SF-268 (CNS) = assay: NCI60 panel IC50; assay type: cell-based; conditions: Homo sapiens, 2 experiments in triplicate
Protocol: as §1, §2

NCI-H23 (Lung) = assay: NCI60 panel IC50; assay type: cell-based; conditions: Homo sapiens
Protocol: as §1, §2

NCI-H226 (Lung) = assay: NCI60 panel IC50; assay type: cell-based; conditions: Homo sapiens
Protocol: as §1, §2

DU-145 (Prostate) = assay: NCI60 panel IC50; assay type: cell-based; conditions: Homo sapiens
Protocol: as §1, §2

M-14 (Melanoma) = assay: NCI60 panel IC50; assay type: cell-based; conditions: Homo sapiens, M14
Protocol: as §1, §2

MALME-3M (Melanoma) = assay: NCI60 panel IC50; assay type: cell-based; conditions: Homo sapiens
Protocol: as §1, §2

MDA-MB-435 S (Breast) = assay: NCI60 panel IC50; assay type: cell-based; conditions: Homo sapiens
Protocol: as §1, §2

SK-BR-3 (Breast) = assay: NCI60 panel IC50; assay type: cell-based; conditions: Homo sapiens
Protocol: as §1, §2

SK-OV-3 (Ovarian) = assay: NCI60 panel IC50; assay type: cell-based; conditions: Homo sapiens
Protocol: as §1, §2

UACC-62 (Melanoma) = assay: NCI60 panel IC50; assay type: cell-based; conditions: Homo sapiens
Protocol: as §1, §2

SK-MEL-5 (Melanoma) = assay: NCI60 panel IC50; assay type: cell-based; conditions: Homo sapiens
Protocol: as §1, §2

BT-549 (Breast) = assay: NCI60 panel IC50; assay type: cell-based; conditions: Homo sapiens
Protocol: as §1, §2

Granta-519 = assay: cell viability assay; assay type: cell-based, human; conditions: Granta-519 B-cell lymphoma (MCL), 48 h, with respect to untreated control cells
OVCAR-4 (Ovarian) = assay: NCI60 panel IC50; assay type: cell-based, human
Protocol: as §1, §2

NCI-H522 (Lung) = assay: NCI60 panel IC50; assay type: cell-based, human; conditions: lung NCl-H522
Protocol: as §1, §2

HCT-15 (Colon) = assay: NCI60 panel IC50; assay type: cell-based, human
Protocol: as §1, §2

OVCAR-8 (Ovarian) = assay: NCI60 panel IC50; assay type: cell-based, human
Protocol: as §1, §2

CN1CCCNc2c(c(=O)c2=O)NCCCN(C)CCCNc2c(c(=O)c2=O)NCCCN(C)CCCNc2c(c(=O)c2=O)NCCCN(C)CCCNc2c(c(=O)c2=O)NCCCN(C)CCCNc2c(c(=O)c2=O)NCCC1 [Compound 10]
inhibition of the 25 most sensitive kinases [1]: more than 80% | % Cell viability (Hut): 60% | IC50 (Jeko-1; Homo sapiens, JeKo-1, 48 h, cell viability, total incubation period 48 h, read-out: IC50 (μM) against Jeko-1 cells): 30.7 µM | % Cell viability (Jeko-1; Jeko-1 B-cell lymphoma (MCL), 48 h, with respect to untreated control cells): 46% | % Cell viability (U251): 85% | IC50 (IGR-OVI (Ovarian)): 2380 nM | IC50 (MOLT-4 (Leukaemia)): 1360 nM | IC50 (Sw-620 (Colon)): 9.41 µM | IC50 (MCF-7 (Breast)): 4.67 µM | IC50 (A-498 (Renal)): 7.5 µM | IC50 (EKVX (Lung)): 2750 nM | IC50 (HOP-62 (Lung)): 6.37 µM | IC50 (ACHN (Renal)): 3.25 µM | IC50 (DMS-114 (Lung)): 8.72 µM | IC50 (U-251 (CNS)): 7.86 µM | IC50 (SK-MEL-2 (Melanoma)): 3.29 µM | IC50 (COLO-205 (Colon)): 3.23 µM | IC50 (Caki-1 (Renal)): 5.75 µM | IC50 (TK-10 (Renal)): 3.36 µM | IC50 (A549 (Lung)): 5.29 µM | IC50 (SW-480 (Colon)): 1800 nM | IC50 (SF-268 (CNS)): 5.61 µM | IC50 (NCI-H23 (Lung)): 3.02 µM | IC50 (NCI-H226 (Lung)): 1530 nM | IC50 (DU-145 (Prostate)): 1800 nM | IC50 (M-14 (Melanoma)): 7.21 µM | IC50 (MALME-3M (Melanoma)): 9.28 µM | IC50 (MDA-MB-435 S (Breast)): 3.66 µM | IC50 (SK-BR-3 (Breast)): 308 nM | IC50 (SK-OV-3 (Ovarian)): 3.1 µM | IC50 (UACC-62 (Melanoma)): 1340 nM | IC50 (SK-MEL-5 (Melanoma)): 2750 nM | IC50 (BT-549 (Breast)): 2210 nM | % Cell viability (Granta-519): 58% | IC50 (OVCAR-4 (Ovarian); Homo sapiens, OVCAR-4 (Ovarian), NCI60 panel, highest concentration 1E-05 M): > 10 µM | sensitivity of the line to the tested compound (OVCAR-4 (Ovarian); ovarian OVCAR-4): resistant | sensitivity of the line to the tested compound (NCI-H522 (Lung)): resistant | IC50 (HCT-15 (Colon); Homo sapiens, HCT-15 (Colon), NCI60 panel, highest concentration 1E-05 M): > 10 µM | sensitivity of the line to the tested compound (HCT-15 (Colon); colon HCTI5): resistant | IC50 (OVCAR-8 (Ovarian); Homo sapiens, OVCAR-8 (Ovarian), NCI60 panel, highest concentration 1E-05 M): > 10 µM | sensitivity of the line to the tested compound (OVCAR-8 (Ovarian); ovarian OVCAR-8): resistant
